Patent EP1796707B1, “PEPTIDES THAT SELECTIVELY HOME TO HEART VASCULATURE AND RELATED CONJUGATES AND METHODS” (The Burnham Institute, priority 2004, dated 2011)

Columns and labels:
[1] = test system: heart vasculature; test: In vivo phage homing to the heart after intravenous injection; conditions: peptide displayed on T7Select 415-1 phage, assayed individually, intravenous injection into mice
Protocol: In vivo panning was performed as follows. The ex vivo-selected phage pool (5 x 10^9 p.f.u.) was intravenously injected into mice through the tail vein and allowed to circulate for ten minutes before mice were carefully perfused through the left ventricle with DMEM in order to remove unbound intravascular phage. The heart and control tissues (brain, kidney, skin and muscle) were excised, and phage recovered as described in Hoffman et al., supra, 2004. Phage recovered from the heart were reinjected into mice, and the cycle was repeated for a total of three rounds. Non-recombinant phage were injected into a separate mouse as a control in each experiment.
As summarized in Table 1, receptor clone 5 represents the carboxy-terminal 92 amino acids of heart LIM-protein (HLP), also designated cysteine-rich protein 2 (CRIP2) and ESP 1. HLP, which is expressed in the vascular heart (Yu et al., Mech. Dev. 116:187-192 (2002)) is a LIM domain-containing protein having homology to Crp-1 (Karim et al., Genomics 31:167-176 (1996); and van Ham et al., Genes Cells 8:631-644 (2003)). Of the five positive colonies from the two-hybrid analysis with the HLP clone, three cognate peptides were identified: CRPPR (SEQ ID NO: 1) was present twice, CGRKSKTVC (SEQ ID NO: 2) once and CGNQVDSRC (SEQ ID NO: 3) twice. After cloning these peptides into the T7Select 415-1 display vector, they were assayed for their ability to home to heart vasculature following intravenous injection. Relative to non-recombinant phage, the CRPPR (SEQ ID NO: 1)-displaying phage homed with more than 300 fold selectivity to the heart (Figure 2A).
Individual phage clones were reconstructed as follows. Oligonucleotides that encoded peptides from selected bait plasmids were synthesized, phosphorylated with T4 polynucleotide kinase (PNK; NEB) at 37°C for one hour, and annealed at a concentration of 0.08 pmol/µl. The annealed inserts were diluted to 0.04 pmol/µl and ligated into T7Select 415-1 arms (Novagen) with T4 ligase overnight at 16°C. The next day, intact recombinant phage were prepared by mixing the ligation reaction with packaging extracts as described by the manufacture. Inserts were confirmed by sequencing, and individual clones were amplified for ex vivo and in vivo testing as described in Example I above.

[2] = test system: heart endothelia; test: Phage localization in tissues: co-injection with fluorescein-conjugated tomato lectin, anti-T7 immunostaining; format: in vivo, mice; conditions: peptide displayed on phage, anti-T7 antibody; for phage presence in heart endothelia: injected intravenously with fluorescein-conjugated tomato lectin; for phage detection in tissues other than heart: same conditions
Protocol: Further characterization was performed on the five most efficient homing peptides, as indicated by the fold-selectivity summarized in Table 1, and their putative receptors. These homing peptides were analyzed for the ability to selectively bind heart endothelia in vivo and for specific binding to their putative receptors, which also were analyzed for expression in heart endothelia. Each of the phage-displaying a particular homing peptide was individually injected intravenously into mice with fluorescein-conjugated tomato lectin, a blood vessel marker. […] None of the six phage were detected in tissues other than heart under the same conditions.
Immunohistochemistry was performed as follows. Rat monoclonal anti-mouse CD31 (1:100) was obtained from BD Pharmingen (San Jose, CA), and rabbit polyclonal anti-T7 phage (1:500), and chicken anti-mouse CRIP2 IgY (1:100) were obtained from GenWay (San Diego, CA). Secondary antibodies, AlexaFluor-488 goat anti-rat IgG (1:1000) and AlexaFluor-594 goat anti-rat or rabbit IgG (1:1000) were obtained from Molecular Probes (Eugene, OR); the secondary antibody GAYFC-AlexaFluor 594 goat anti-IgY Fc (1:250) was obtained from GenWay. Frozen sections were preincubated with blocking buffer (5% normal goat serum and 0.5% BSA in 1x PBS) for one hour, washed three times with PBS, and incubated with the primary antibody of interest overnight at 4°C. After the overnight incubation, secondary antibodies were added and incubated for one hour at room temperature. Slides were washed three times with PBS and mounted in Vectashield Mounting Medium with DAPI (Vector Laboratories; Burlingame, California). Blood vessels were additionally visualized by intravenous injection with Lycopersicon esculentum (tomato) lectin conjugated to fluorescein (100 µg in 200 µl of PBS) purchased from Vector Laboratories.

[3] = test system: bc10; test: Phage binding to 293T cells transfected with cognate receptor, with free peptide competition; design: species or system murine
Protocol: (§1) Full-length cDNAs were constructed for four of the putative heart homing receptors, HLP/CRIP2, Sigirr/TIR8, and MpcII-3-related protein and bc10, and expressed in 293T cells. […]
(§2) Receptor transfections and phage binding assays were performed as follows. 293T cells were transfected with pMH6-derived plasmids (Roche Diagnostics; Indianapolis, IN) encoding HLP/CRIP2, Sigirr/TIR8, MpcII-3-retated protein and bc10 using the Fugene transfection reagent (Roche Diagnostics). Briefly, 10 µg of plasmid was mixed with 700 µl of serum-free DMEM and 30 µl of Fugene transfection reagent and incubated for 15 minutes at room temperature before the mixture was added to cells. After forty-eight hours, cells were detached from culture dishes using EDTA and washed once with PBS. Phage displaying CRPPR (SEQ ID NO: 1), CKRAVR (SEQ ID NO: 7), CRSTRANPC (SEQ ID NO: 11) or CPKTRRVPC (SEQ ID NO: 12) and nonrecombinant control phage (1 x 10^9 p.f.u) were incubated with transfected cells for two hours at 4°C. Unbound phage were removed by five washes with 1% BSA in PBS. Bound phage were rescued by addition of bacteria; binding efficiencies were determined by plaque assay as described above.
(§3) Peptides for competition assays were synthesized at The Burnham Institute peptide facility using Fmoc chemistry in a solid-phase synthesizer prior to purification by HPLC and confirmation of their identity by mass spectrometry. Fluorescein-conjugated peptides were synthesized as described in Wender et al., Proc. Natl. Acad. Sci. USA 97:13003-13008 (2000). Competition assays were performed by addition of 100 µg peptide to the cells and phage, followed by incubation at 4°C for two hours. After five washes with […], bound phage were rescued and quantitated by plaque assay.

[4] = test system: MpcII-3-related protein; test: as above; design: species or system murine
Protocol: as §1, §2, §3

[5] = conclusion from phage binding and competition on transfected 293T cells

Sequence	heart homing selectivity relative to non-recombinant phage [1]	phage presence in heart endothelia [2]	phage detection in tissues other than heart [2]	specific binding to the receptor (in words) [3, 5]	inhibition of phage binding to transfected cells by competition with free peptide ([3]; free synthetic peptide 100 µg/ml, CPKTRRVPC phage on bc10 transfected cells)	specific binding to the receptor (in words) [4, 5]	inhibition of phage binding to transfected cells by competition with free peptide ([4]; free synthetic peptide 100 mg/ml, CRSTRANPC phage on cells transfected with MpcII-3-related protein)
CGRKSKTVC	about 50 fold						
CPKTRRVPC [tested on phage and as free peptide]	about 60 fold	present in heart endothelia	absent from other tissues	specifically binds	inhibited		
CRSTRANPC [tested on phage and as free peptide]	about 20 fold	present in heart endothelia	absent from other tissues			specifically binds	inhibited
CLIDLHVMC [peptide identified with receptor clone 27; phage served as a negative control]		absent from the heart	absent from the heart and other tissues				
CSGMARTKC	~10 fold						
